# Experimental data published in patent US12527779B2, “Prostaglandin E2 (PGE2) EP4 receptor antagonists” (Domain Therapeutics, priority 2019, dated 2026).
# Where a name gives a salt, the structure may show the parent alone.
# Target: T1, human EP4 (hEP4) receptor (Homo sapiens, UniProt P35408)
# T1 construct: expressed in transfected cells; host or cells: HEK-293 T cells, transient co-transfection with polyethylenimine
# Assay: In vitro human EP4 functional antagonist activity using BRET biosensors (cAMP EPAC biosensor, TCS2510 stimulation)
# Assay type: cell-based
# Settings: antagonist activity vs EC60 TCS2510, hEP4 in HEK-293 T cells
# Procedure, shortened: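 HEK-293T cells transiently co-transfected with hEP4 and EPAC cAMP BRET biosensor (luciferase/GFP), assayed 48 h later in HEPES-buffered saline after 1 h at 22 °C. After 5 min with compound, cells stimulated with EC60 TCS2510 and BRET read for 10 min; IC50 from 10-point, 4.5-log variable-slope fits, duplicate, two experiments.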
# T1 sequence (P35408 whole entry): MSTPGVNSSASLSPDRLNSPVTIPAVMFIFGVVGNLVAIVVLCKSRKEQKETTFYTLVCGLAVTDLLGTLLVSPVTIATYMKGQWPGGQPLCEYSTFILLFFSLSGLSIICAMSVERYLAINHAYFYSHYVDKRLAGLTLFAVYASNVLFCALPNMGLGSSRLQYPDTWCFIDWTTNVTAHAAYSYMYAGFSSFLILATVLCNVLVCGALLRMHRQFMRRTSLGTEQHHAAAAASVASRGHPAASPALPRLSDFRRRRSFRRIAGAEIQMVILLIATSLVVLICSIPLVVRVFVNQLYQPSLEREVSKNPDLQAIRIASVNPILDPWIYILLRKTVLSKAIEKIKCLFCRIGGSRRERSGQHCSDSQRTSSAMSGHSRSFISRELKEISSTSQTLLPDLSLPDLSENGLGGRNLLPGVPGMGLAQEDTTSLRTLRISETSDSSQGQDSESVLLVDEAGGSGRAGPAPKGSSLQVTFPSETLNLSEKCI
row,IC50,SMILES
1,< 100 nM,"C[C@H](NC(=O)C1(N2CC[C@@H](Oc3cccc(Cl)c3)C2)CCCC1)c1ccc(C(=O)O)cc1 [Example 157, 4-[(1S)-1-[[1-[(3R)-3-(3-Chlorophenoxy)pyrrolidin-1-yl]cyclopentane-1-carbonyl]amino]ethyl]benzoic acid, hydrochloride]"
2,< 100 nM,"C[C@H](NC(=O)C1(N2CC[C@@H](Oc3cccc(Cl)c3)C2)CCC1)c1ccc(C(=O)O)cc1 [Example 159, 4-[(1S)-1-[[1-[(3R)-3-(3-Chlorophenoxy)pyrrolidin-1-yl]cyclobutane-1-carbonyl]amino]ethyl]benzoic acid, hydrochloride]"
3,< 100 nM,"C[C@H](NC(=O)C1(N2CC[C@@H](Oc3cccc(Cl)c3)C2)CC1)c1ccc(C(=O)O)cc1 [Example 160, 4-[(1S)-1-[[1-[(3R)-3-(3-Chlorophenoxy)pyrrolidin-1-yl]cyclopropane-1-carbonyl]amino]ethyl]benzoic acid, hydrochloride]"
4,< 100 nM,"C[C@H](NC(=O)C(C)(C)N1CC[C@@H](Oc2cccc(Cl)c2)C1)c1ccc(C(=O)O)cc1 [Example 161, hydrochloride]"
5,< 100 nM,"C[C@H](NC(=O)C1(N2CC[C@@H](Oc3cccc(C(F)(F)F)c3)C2)CCCCC1)c1ccc(C(=O)O)cc1 [Example 162, 4-[(1S)-1-[[1-[(3R)-3-[3-(Trifluoromethyl)phenoxy]pyrrolidin-1-yl]cyclohexane-1-carbonyl]amino]ethyl]benzoic acid, hydrochloride]"
6,< 100 nM,"C[C@H](NC(=O)C1(N2CC[C@@H](Oc3cccc(C(F)(F)F)c3)C2)CCC(F)(F)CC1)c1ccc(C(=O)O)cc1 [Example 163, 4-[(1S)-1-[[1-[(3R)-3-[3-(Trifluoromethyl)phenoxy]pyrrolidin-1-yl]-4,4-difluorocyclohexane-1-carbonyl]amino]ethyl]benzoic acid, hydrochloride]"
7,< 100 nM,"C[C@H](NC(=O)C1(N2CC[C@@H](Oc3cccc(C(F)(F)F)c3)C2)CCCC1)c1ccc(C(=O)O)cc1 [Example 164, 4-[(1S)-1-[[1-[(3R)-3-[3-Trifluoromethyl)phenoxy]pyrrolidin-1-yl]cyclopentane-1-carbonyl]amino]ethyl]benzoic acid, hydrochloride]"
8,< 100 nM,"C[C@H](NC(=O)C1(N2CC[C@@H](Oc3cccc(C(F)(F)F)c3)C2)CCC1)c1ccc(C(=O)O)cc1 [Example 165, 4-[(1S)-1-[[1-[(3R)-3-[3-(Trifluoromethyl)phenoxy]pyrrolidin-1-yl]cyclobutane-1-carbonyl]amino]ethyl]benzoic acid, hydrochloride]"
9,< 100 nM,"C[C@H](NC(=O)C(C)(C)N1CC[C@@H](Oc2cccc(C(F)(F)F)c2)C1)c1ccc(C(=O)O)cc1 [Example 167, hydrochloride]"
10,< 100 nM,"C[C@H](NC(=O)C1(N2CC[C@@H](Oc3cccc(C(F)(F)F)c3)C2)CCOCC1)c1ccc(C(N)=O)cc1 [Example 168, 4-[(1S)-1-[[4-[(3R)-3-[3-(Trifluoromethyl)phenoxy]pyrrolidin-1-yl]tetrahydropyran-4-carbonyl]amino]ethyl]benzamide, hydrochloride]"
11,< 100 nM,"CNC(=O)c1ccc([C@H](C)NC(=O)C2(N3CC[C@@H](Oc4cccc(C(F)(F)F)c4)C3)CCOCC2)cc1 [Example 169, hydrochloride]"
12,< 100 nM,"C[C@H](NC(=O)C1(N2CC[C@@H](Oc3cccc(C(F)(F)F)c3)C2)CCOCC1)c1ccc(C(=O)N(C)C)cc1 [Example 170, 4-[(1S)-1-[[4-[(3R)-3-[3-(Trifluoromethyl)phenoxy]pyrrolidin-1-yl]tetrahydropyran-4-carbonyl]dimethylamino]ethyl]benzamide, hydrochloride]"
13,< 100 nM,"C[C@H](NC(=O)C1(N2CC[C@@H](Oc3cccc(C(F)(F)F)c3)C2)CCC1)c1ccc(C(N)=O)cc1 [Example 171, 4-[(1S)-1-[[1-[(3R)-3-[3-(Trifluoromethyl)phenoxy]pyrrolidin-1-yl]cyclobutane-1-carbonyl]amino]ethyl]benzamide, hydrochloride]"
14,< 100 nM,"C[C@H](NC(=O)C1(N2CC[C@@H](Oc3cccc(Cl)c3)C2)CCC1)c1ccc(C(N)=O)cc1 [Example 172, 4-[(1S)-1-[[1-[(3R)-3-(3-Chlorophenoxy)pyrrolidin-1-yl]cyclobutane-1-carbonyl]amino]ethyl]benzamide, hydrochloride]"
15,< 100 nM,"C[C@H](NC(=O)C(C)(C)N1CC[C@@H](Oc2cccc(C(F)(F)F)c2)C1)c1ccc(C(N)=O)cc1 [Example 173, 4-[(1S)-1-[[2-[(3R)-3-[3-(Trifluoromethyl)phenoxy]pyrrolidin-1-yl]-2-methylpropane-carbonyl]amino]ethyl]benzamide, hydrochloride]"
16,< 100 nM,"C[C@H](NC(=O)C(C)(C)N1CC[C@@H](Oc2cccc(Cl)c2)C1)c1ccc(C(N)=O)cc1 [Example 174, hydrochloride]"
17,< 100 nM,"C[C@H](NC(=O)C1(N2CC[C@@H](Oc3cccc(C(F)(F)F)c3)C2)CCOCC1)c1ccc(-c2nn[nH]n2)cc1 [Example 175, N—((S)-1-(4-(2H-Tetrazol-5-yl)phenyl)ethyl)-4-((R)-3-(3-(trifluoromethyl)phenoxy)pyrrolidin-1-yl)tetrahydro-2H-pyran-4-carboxamide, hydrochloride]"
18,< 100 nM,"C[C@H](NC(=O)C1(N2CC[C@@H](Oc3cccc(C(F)(F)F)c3)C2)CCOCC1)c1ccc(-c2cn[nH]c2)cc1 [Example 176, N—((S)-1-(4-(1H-Pyrazol-4-yl)phenyl)ethyl)-4-((R)-3-(3-(trifluoromethyl)phenoxy)pyrrolidin-1-yl)tetrahydro-2H-pyran-4-carboxamide, hydrochloride]"
19,< 100 nM,"C[C@H](NC(=O)C1(N2CC[C@@H](Oc3cccc(C(F)(F)F)c3)C2)CCOCC1)c1ccc(-c2ccn[nH]2)cc1 [Example 177, N—((S)-1-(4-(1H-Pyrazol-5-yl)phenyl)ethyl)-4-((R)-3-(3-(trifluoromethyl)phenoxy)pyrrolidin-1-yl)tetrahydro-2H-pyran-4-carboxamide, hydrochloride]"
20,< 100 nM,"C[C@H](NC(=O)C1(N2CC[C@@H](Oc3cccc(C(F)(F)F)c3)C2)CCOCC1)c1ccc(S(N)(=O)=O)cc1 [Example 178, N—((S)-1-(4-Sulfamoylphenyl)ethyl)-4-((R)-3-(3-(trifluoromethyl)phenoxy)pyrrolidin-1-yl)tetrahydro-2H-pyran-4-carboxamide, hydrochloride]"
21,< 100 nM,"C[C@H](NC(=O)C1(N2CC[C@@H](Oc3cccc(C(F)(F)F)c3)C2)CCOCC1)c1ccc(S(C)(=O)=O)cc1 [Example 179, N—((S)-1-(4-(Methylsulfonyl)phenyl)ethyl)-4-((R)-3-(3-(trifluoromethyl)phenoxy)pyrrolidin-1-yl)tetrahydro-2H-pyran-4-carboxamide, hydrochloride]"
22,< 100 nM,"C[C@H](NC(=O)C1(N2CC[C@@H](Oc3cccc(C(F)(F)F)c3)C2)CCOCC1)c1ccc(S(C)(=N)=O)cc1 (stereo partly drawn) [Example 180, N-((1S)-1-(4-(S-Methylsulfonimidoyl)phenyl)ethyl)-4-((R)-3-(3-(trifluoromethyl)phenoxy)pyrrolidin-1-yl)tetrahydro-2H-pyran-4-carboxamide, hydrochloride]"
23,< 1000 nM,"C[C@H](NC(=O)C1(N2CC[C@@H](Oc3cccc(C(F)(F)F)c3)C2)CCOCC1)c1ccc(O)cc1 [Example 181, N—((S)-1-(4-Hydroxyphenyl)ethyl)-4-((R)-3-(3-(trifluoromethyl)phenoxy)pyrrolidin-1-yl)tetrahydro-2H-pyran-4-carboxamide, hydrochloride]"
24,< 100 nM,"C[C@H](NC(=O)C1(N2CC[C@@H](Oc3cccc(C(F)(F)F)c3)C2)CCOCC1)c1ccc(C#N)cc1 [Example 182, N—((S)-1-(4-Cyanophenyl)ethyl)-4-((R)-3-(3-(trifluoromethyl)phenoxy)pyrrolidin-1-yl)tetrahydro-2H-pyran-4-carboxamide, hydrochloride]"
25,< 1000 nM,"C[C@H](NC(=O)C1(N2CC[C@@H](Oc3cccc(C(F)(F)F)c3)C2)CCOCC1)c1ccccc1 [Example 183, N—((S)-1-Phenylethyl)-4-((R)-3-(3-(trifluoromethyl)phenoxy)pyrrolidin-1-yl)tetrahydro-2H-pyran-4-carboxamide, hydrochloride]"
26,< 1000 nM,"C[C@H](NC(=O)C1(N2CC[C@@H](Oc3cccc(C(F)(F)F)c3)C2)CCOCC1)c1ccncc1 [Example 184, N—((S)-1-(Pyridin-4-yl)ethyl)-4-((R)-3-(3-(trifluoromethyl)phenoxy)pyrrolidin-1-yl)tetrahydro-2H-pyran-4-carboxamide, hydrochloride]"
27,< 1000 nM,"C[C@H](NC(=O)C1(N2CC[C@@H](Oc3cccc(C(F)(F)F)c3)C2)CCOCC1)c1cccnc1 [Example 185, N—((S)-1-(Pyridin-3-yl)ethyl)-4-((R)-3-(3-(trifluoromethyl)phenoxy)pyrrolidin-1-yl)tetrahydro-2H-pyran-4-carboxamide, hydrochloride]"
28,< 1000 nM,"C[C@H](NC(=O)C1(N2CC[C@@H](Oc3cccc(C(F)(F)F)c3)C2)CCOCC1)c1ccccn1 [Example 186, N—((S)-1-(Pyridin-2-yl)ethyl)-4-((R)-3-(3-(trifluoromethyl)phenoxy)pyrrolidin-1-yl)tetrahydro-2H-pyran-4-carboxamide, hydrochloride]"
29,< 1000 nM,"C[C@H](NC(=O)C1(N2CC[C@@H](Oc3cccc(C(F)(F)F)c3)C2)CCOCC1)c1ccc(F)cc1 [Example 187, N—((S)-1-(4-Fluorophenyl)ethyl)-4-((R)-3-(3-(trifluoromethyl)phenoxy)pyrrolidin-1-yl)tetrahydro-2H-pyran-4-carboxamide, hydrochloride]"
30,< 1000 nM,"C[C@H](NC(=O)C1(N2CC[C@@H](Oc3cccc(C(F)(F)F)c3)C2)CCOCC1)c1cccc(F)c1 [Example 188, N—((S)-1-(3-Fluorophenyl)ethyl)-4-((R)-3-(3-(trifluoromethyl)phenoxy)pyrrolidin-1-yl)tetrahydro-2H-pyran-4-carboxamide, hydrochloride]"
